Patent US20060264508A1, “Modulation of ocular growth and myopia by gaba drugs” (priority 2001, published 2006)
“And” between values parts separate entries of the source, which are not always exact repeats. Equal entries are not always repeated. “Also recorded” adds a separate entry of the source. Structures can show the parent of a compound that is named as a salt. Where two headings read alike, the source gives them in different places.

Columns and labels:
[1] = test system: goggled eyes (form-deprivation myopia); conditions: daily intravitreal injection, result in words
[2] = test system: non-goggled eyes; assay type: in vivo, White leghorn chicks; conditions: for Equatorial diameter (calipers) / axial length calipers / axial length ultrasound / refraction / vitreous chamber depth (ultrasound): daily intravitreal dose(s) at which drug-treated differ from contralateral vehicle-treated eyes (P<0.05, Tukey test); for effect on lens thickness / anterior chamber depth, drug-treated vs vehicle-treated eyes: primary outcome comparison
Description: Chicks were anesthetized with inhalation ether for all goggle applications and drug injections. The experimental eye was the right eye in half of the chicks, and the left eye in the other half of the chicks, assigned in an alternating order within each group. Form-deprivation myopia was induced by attaching a unilateral translucent white plastic goggle to the periorbital feathers with cyanoacrylate glue. All research conformed with the ARVO Resolution on the Use of Animals in Ophthalmic and Vision Research.
All goggle applications and/or drug injections began when the chicks reached one week of age. At about four hours into the light phase, a 10 μl intravitreal injection of either drug+vehicle or vehicle alone was given under aseptic conditions to the goggled or experimental non-goggled eye, with all contralateral eyes concurrently receiving vehicle injections.
On this day, the animals received no intraocular injections. […] While still under general anesthesia, the chicks were decapitated; and the axial and equatorial dimensions of enucleated eyes were measured with digital calipers. As the coronal profile of the chick eye is elliptical, the equatorial dimension was reported as the mean of the shortest and longest equatorial dimensions.
For goggled chicks, the primary measure of outcome was the drug effect on the ocular response to wearing a goggle, and comparisons of individual doses to each other and to vehicle-treated controls for each drug. Differences in refraction and each size measurement between goggled and contralateral eyes were assessed by one-way analysis of variance (ANOVA). For non-goggled chicks, the primary outcome measure was comparison of drug-treated to contralateral vehicle-treated eyes using a two-way repeated measures ANOVA (one factor replication, using eye as the replicated factor) for refractions and measurements.
The statistical outcomes with the two-way ANOVA are mainly described by the drug-treated to contralateral eye comparison. […] When the ANOVA assumptions of normality or equal variance were not met, the corresponding ANOVA on ranks was used. […] The Figures show the P values when the overall ANOVA reached a significance level of at least P<0.05, and the post-hoc tests for within group comparisons appear in the Tables that follow.

[3] = non-goggled eyes, drug-treated vs contralateral vehicle-treated eyes, result in words
[4] = non-goggled chicks receiving the 10 μg dose, mean±S.E.M.
[5] = non-goggled chicks, 10 μg dose, mean±S.E.M.
[6] = non-goggled chicks, contralateral vehicle-treated eyes
[7] = non-goggled chicks, drug-treated eyes
[8] = non-goggled eyes, result in words
[9] = non-goggled eyes, drug-treated vs contralateral vehicle-treated eyes, result in words, listed as muscimol, hydrobromide

Compound	effect on axial dimensions (axial length, vitreous chamber depth; ultrasound or calipers) of goggled eyes [1]	effect on myopic refraction of goggled eyes [1]	Equatorial diameter (calipers) ([2]; non-goggled eyes)	axial length calipers ([2]; non-goggled eyes)	axial length ultrasound ([2]; non-goggled eyes)	refraction ([2]; non-goggled eyes)	vitreous chamber depth (ultrasound) ([2]; non-goggled eyes)	effect on axial growth / axial length and vitreous chamber depth of non-goggled eyes [2, 3]	effect on refraction of non-goggled eyes [2, 3]	overall effect on form-deprivation myopia (refraction and size measurements) of goggled eyes [1]	effect on equatorial diameter of non-goggled eyes [2, 3]	effect on equatorial diameter / equatorial expansion of goggled eyes (calipers) [1]	also measured
NCC(O)(CS(=O)(=O)O)c1ccc(Cl)cc1 (centres unmarked) [2OH-saclofen, 2-hydroxysaclofen]	none of the tendencies of either drug to reduce ocular dimensions by ultrasound or calipers reached statistical significance	reduced the myopic refractions	–	–	–	–	–	–	–	–	–	–	–
NC[C@H](CC(=O)O)c1ccc(Cl)cc1 [Baclofen, R(+)-baclofen]	neither the ultrasound nor the caliper measurements revealed statistically significant growth inhibition	partially reduced the myopic refractive error	n.s. (n.s., P ≧ 0.05 by ANOVA)	* (P < 0.05 by ANOVA for drug-treated vs. contralateral eyes, but no specific pair-wise comparison identified by the Tukey test.)	n.s. (n.s., P ≧ 0.05 by ANOVA)	n.s. (n.s., P ≧ 0.05 by ANOVA)	100 µg	modest deepening of the vitreous chamber	None of the other effects of baclofen on the non-goggled eyes, including refractions (data not shown), reached statistical significance	weak anti-myopia effect	–	–	–
NC/C=C\C(=O)O [CACA, cis-4-aminocrotomc acid]	not accompanied by any statistically identifiable changes in axial measurements	modest, perhaps biphasic effect	n.s. (n.s., P ≧ 0.05 by ANOVA)	n.s. (n.s., P ≧ 0.05 by ANOVA)	50 µg	n.s. (n.s., P ≧ 0.05 by ANOVA)	n.s. (n.s., P ≧ 0.05 by ANOVA)	slightly stimulated axial length by ultrasound; also recorded: stimulate axial growth to a modest degree	not affecting refraction; also recorded: without altering refraction	none of the size measurements were altered	without altering refraction or affecting equatorial diameter	no change in the equatorial dimension	anterior chamber depth of contralateral vehicle-treated eyes [2, 4]: 1.31±0.03 mm; lens thickness of contralateral vehicle-treated eyes [2, 4]: 2.22±0.02 mm; anterior chamber depth of drug-treated eyes [2, 5]: 1.32±0.03 mm; lens thickness of drug-treated eyes [2, 5]: 2.22±0.02 mm; lens thinner in contralateral vehicle-treated eyes at 10 μg than in the other two cohorts (100 or 200 μg) [2, 6]: 0.10 mm; anterior chambers deeper at the 10 μg dose than at the higher doses ([2]; non-goggled chicks, drug- and vehicle-treated eyes, vs 50, 100 or 200 μg): 0.08-0.14 mm; lens thinner in drug-treated eyes at 10 μg than at the 100 or 200 μg doses [2, 7]: 0.16 mm; effect on lens thickness / anterior chamber depth, drug-treated vs vehicle-treated eyes [2, 8]: did not affect lens thickness or anterior chamber depth
CCOC(OCC)P(=O)(O)CCCN [CGP35348, (3-aminopropyl)(diethoxy-methyl)phosphinic acid]	–	–	–	–	–	–	–	–	–	no statistical effect	–	–	–
NCCCP(=O)(O)CC1CCCCC1 [CGP46381, (3-aminopropyl)(cyclo-hexylmethyl)phosphinic acid]	inhibited the myopic refractive shift, the axial and vitreous chamber elongation	inhibited the myopic refractive shift	n.s. (n.s., P ≧ 0.05 by ANOVA)	n.s. (n.s., P ≧ 0.05 by ANOVA)	n.s. (n.s., P ≧ 0.05 by ANOVA)	–	100 µg	slightly enhanced vitreous chamber length	did not exert statistically identifiable changes	potent anti-myopia effects; also recorded: inhibiting myopia and limiting axial vitreous chamber and equatorial expansion	did not exert statistically identifiable changes	inhibited the myopic refractive shift, the axial and vitreous chamber elongation, and the equatorial expansion	lens thickness of contralateral vehicle-treated eyes [2, 4]: 2.26±0.03 mm; lens thickness of drug-treated eyes [2, 5]: 2.27±0.04 mm; lens thicker in vehicle-treated eyes at 10 μg than at the 100 μg dose [2, 6]: 0.06 mm; lens thicker in drug-treated eyes at 10 μg than at the 100 μg dose [2, 7]: 0.07 mm; effect on lens thickness / anterior chamber depth, drug-treated vs vehicle-treated eyes [2, 8]: no influence on lens thickness
NCc1cc(=O)[nH]o1 [Muscimol, Muscimol hydrobromide]	–	–	–	–	–	–	–	–	–	did not affect refraction, ultrasound or caliper measurements	–	–	refraction of contralateral vehicle-treated eyes ([2]; non-goggled chicks, 5 μg daily dose to the other eye, mean±S.E.M.): 0.86±0.58 D; refraction of contralateral vehicle-treated eyes ([2]; non-goggled chicks, 10 μg daily dose to the other eye, mean±S.E.M.): +0.11±0.82 D; refraction of contralateral vehicle-treated eyes ([2]; non-goggled chicks, 50 μg daily dose to the other eye, mean±S.E.M.): 1.78±1.21 D; refraction of contralateral vehicle-treated eyes ([2]; non-goggled chicks, 200 μg daily dose to the other eye, mean±S.E.M.): 3.82±0.83 D; dose of maximum effect on refraction (shift to myopia) of non-goggled eyes ([2]; non-goggled eyes, daily intravitreal injection): 50 µg; effect on refraction of non-goggled eyes ([2]; non-goggled eyes, drug-treated vs contralateral vehicle-treated eyes, result in words, hydrobromide): induces a statistically significant myopic shift in refraction; effect on axial growth / axial length and vitreous chamber depth of non-goggled eyes [2, 9]: stimulated axial growth as measured by either ultrasound or calipers, and deepened the vitreous chamber; also recorded: increasing not only axial and vitreous chamber lengths; effect on equatorial diameter of non-goggled eyes [2, 9]: increased the equatorial diameter; also recorded: expanding the equatorial diameter; effect on refraction of non-goggled eyes [2, 9]: shifted the refraction to myopia; also recorded: statistically significant shift in refraction
CC1(C)CO[C@@H](CC(=O)O)CN1 [SCH50911, (+)-(2S)-5,5-dimethyl-2-morpholineacetic acid]	none of the tendencies of either drug to reduce ocular dimensions by ultrasound or calipers reached statistical significance	reduced the myopic refractions	–	–	–	–	–	–	–	–	–	–	–
NC/C=C/C(=O)O [TACA, Trans-4-aminocrotonic acid]	–	–	–	–	–	–	–	–	–	no statistically significant effects	–	–	overall effect on refraction and ocular size / eye growth of non-goggled eyes [2, 3]: influenced neither refraction nor ocular size measurements
CP(=O)(O)C1=CCNCC1 [TPMPA, (1,2,5,6-tetraliydro-pyridine-4-yl) methyiphosphinic acid]	blocked the axial and vitreous chamber elongation as measured by ultrasound; also recorded: effects on axial growth as measured by calipers, did not reach statistical significance; also recorded: significantly reduces the axial length of the eye and vitreous chamber depth	reduced the myopic refraction; also recorded: largely eliminates the myopic refractive shift	–	200 & μg and 100 μg	10 µg	§ (P < 0.05 by ANOVA for overall dose effect, but no significant effect identified for drug-treated vs. contralateral eyes; no specific pairwise comparison identified by the Tukey test.)	* (P < 0.05 by ANOVA for drug-treated vs. contralateral eyes, but no specific pair-wise comparison identified by the Tukey test.)	stimulated both axial growth and vitreous chamber length; also recorded: stimulates axial elongation and vitreous chamber depth	slight myopic refractive shift; also recorded: without altering refraction	potent anti-myopia effects	reduced the equatorial diameter; also recorded: equatorial dimension actually diminished	blocked the axial and vitreous chamber elongation as measured by ultrasound, and the equatorial expansion	–
